Reference: publication PMC10592443 (Cell chemical biology, 2023)
Each block holds one molecule with its values, some of them ahead of it. Residues, ends and D or L forms follow the SMILES beside them. *: point of attachment. Cbz = O=C(OCc1ccccc1)*; CH2F = FC*

What was measured:
HEK293 cells = test: Hsp90 inhibition time course, protein levels by immunoblot; format: cell-based, Human; details: 2μM
A498 cells = test: Phosphorylation of S194-FADD by western blot; format: cell-based, Human; details: indicated amounts, 24hrs
[1] = system: VHL-null ccRCC cell lines; details: ref [2]; cited from earlier work
786-O cells [2] = test: Phosphorylation of S194-FADD by western blot; format: cell-based, Human; details: indicated amounts, 24hrs
786-O cells [3] = test: Induction of apoptosis by immunoblotting of apoptotic markers; format: cell-based, Human
786-O cells [4] = test: Cell viability / proliferation; format: cell-based, Human; details: varying doses, 48hrs
recombinant PP5-His6 = biological target: T1, recombinant PP5-His6 (Homo sapiens, UniProt P53041); test: PP5 phosphatase activity and inhibition assay; format: biochemical; details: phospho-S211-GR peptide substrate
T1 sequence (P53041 1-499): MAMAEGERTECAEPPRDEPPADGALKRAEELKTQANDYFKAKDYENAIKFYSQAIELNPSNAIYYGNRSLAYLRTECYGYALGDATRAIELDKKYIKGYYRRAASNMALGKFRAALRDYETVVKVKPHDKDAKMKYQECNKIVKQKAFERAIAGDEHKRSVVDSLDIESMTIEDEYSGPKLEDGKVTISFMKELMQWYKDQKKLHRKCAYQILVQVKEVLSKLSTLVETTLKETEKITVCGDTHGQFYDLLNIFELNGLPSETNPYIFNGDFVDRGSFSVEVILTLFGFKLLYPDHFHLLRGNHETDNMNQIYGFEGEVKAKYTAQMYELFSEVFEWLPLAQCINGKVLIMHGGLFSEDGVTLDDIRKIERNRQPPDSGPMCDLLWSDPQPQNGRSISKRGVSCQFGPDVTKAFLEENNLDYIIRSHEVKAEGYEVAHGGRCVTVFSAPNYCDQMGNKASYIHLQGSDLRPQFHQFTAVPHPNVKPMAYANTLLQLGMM

PP2A = test: Biotinylated compound pulldown from 786-O lysate, co-pulldown of PP2A; format: binding, Human; details: 1μM
PP5-FLAG = biological target: T2, PP5-FLAG (Homo sapiens, UniProt P53041); test: Biotin-P5 and biotin-P13 streptavidin pulldown from HEK293 lysate; format: binding; details: for binding to PP5-FLAG (co-pulldown): HEK293 lysate, 0.01-10μM biotinylated compound
T2 sequence (P53041 1-499): T1 sequence (P53041 1-499)

[5] = biological target: T3, PP5-FLAG active site point mutants (Homo sapiens, UniProt P53041, R400A); test: Biotin-P13 streptavidin pulldown of PP5 active site point mutants; format: binding; details: R400A mutant
T3 sequence (P53041 2-499 R400A): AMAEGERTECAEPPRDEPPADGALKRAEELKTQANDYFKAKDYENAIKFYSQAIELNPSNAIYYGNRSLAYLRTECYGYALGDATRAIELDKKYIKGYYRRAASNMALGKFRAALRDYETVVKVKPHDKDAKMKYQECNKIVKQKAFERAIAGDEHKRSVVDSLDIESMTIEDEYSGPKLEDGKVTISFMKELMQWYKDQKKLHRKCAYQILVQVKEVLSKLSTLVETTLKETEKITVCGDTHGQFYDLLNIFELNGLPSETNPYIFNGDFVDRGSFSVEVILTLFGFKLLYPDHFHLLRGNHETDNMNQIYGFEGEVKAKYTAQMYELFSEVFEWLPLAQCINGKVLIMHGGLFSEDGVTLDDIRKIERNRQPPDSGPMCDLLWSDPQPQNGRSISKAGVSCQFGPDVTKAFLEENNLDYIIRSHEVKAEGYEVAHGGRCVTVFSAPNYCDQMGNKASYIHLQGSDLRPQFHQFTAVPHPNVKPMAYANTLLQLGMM

[6] = system: PP5-FLAG active site point mutants; test: as above; format: binding, Human
PP5 = details: ref [52]-[54]; cited from earlier work
PP1 = details: ref [52]-[54]; cited from earlier work
VHL-null ccRCC cells = test: Propidium iodide staining, cell death by flow cytometry; format: cell-based, Human; details: 30 or 40μM, A498 and 786-O versus Caki-1 and Caki-2; dose dependent

SMILES: CC1(C)CC(=O)c2c(C(F)(F)F)nn(-c3ccc(C(N)=O)c(N[C@H]4CC[C@H](O)CC4)c3)c2C1 [SNX-2112]
RIPK1 protein levels (HEK293 cells; 16 hr): decreased RIPK1 protein levels
FADD protein levels (HEK293 cells; throughout the time course): did not observe a decrease in FADD levels
Hsp90 clients Tsc2, Akt and phos-Ser473-Akt protein levels (HEK293 cells; time course): destabilized and degraded

SMILES: COc1cc(OC)c(C=C2C(O)=Nc3ccccc32)c(OC)c1 [IC261]
S194-FADD phosphorylation (A498 cells): increase in S194-FADD phosphorylation
PP5 activity [1]: decreased PP5 activity
apoptosis [1]: induced apoptosis
S194-FADD phosphorylation (786-O cells [2]): increase in S194-FADD phosphorylation
induction of extrinsic apoptosis (apoptotic markers) (786-O cells [3]; indicated amounts, 16hrs): induced extrinsic apoptosis in a dose-dependent manner

SMILES: Cc1noc(C)c1S(=O)(=O)N(CCCC#N)c1ccc(Oc2ccccc2)cc1 [Compound P075, 4-[(3,5-Dimethyl-4-isoxazolylsulfonyl)(p-phenoxyphenyl)amino]butyronitrile]
induction of apoptosis (cleaved PARP, cleaved caspase 8) (786-O cells [3]; 10μM, 24hrs): ability to induce apoptosis

SMILES: CCCCN(c1ccc(Oc2ccccc2)cc1)S(=O)(=O)c1c(C)noc1C [Compound P058, N-Butyl(3,5-dimethyl-4-isoxazolylsulfonyl)(p-phenoxyphenyl)amine]
induction of apoptosis (cleaved PARP, cleaved caspase 8) (786-O cells [3]; 10μM, 24hrs): ability to induce apoptosis

mode of PP5 inhibition (enzyme kinetics, Lineweaver-Burk plot) (recombinant PP5-His6): competitive inhibitors
SMILES: COC(=O)c1cccc(NS(=O)(=O)c2c(C)noc2C)c1 [Compound P5, Methyl m-(3,5-dimethyl-4-isoxazolylsulfonylamino)benzoate]
proliferation of 786-O cells (MTT) (786-O cells [4]): significantly inhibited the proliferation
cleavage of apoptotic markers (immunoblot) (786-O cells [3]; 10μM, 24hrs): cleavage of the apoptotic markers caspase 3 and 8 and PARP

SMILES: COC(=O)C[C@H](NC(=O)[C@H](C)NC(=O)[C@@H](NC(=O)OCc1ccccc1)C(C)C)C(=O)CF [z-VAD-fmk, reference compound] (Cbz-Val-Ala-Asp(OMe)-CH2F)
effect on IC261-induced extrinsic apoptosis (786-O cells [3]; 10μM for 1hr, then IC261 for 16hrs): reversed this effect

binding to PP2A (co-pulldown) (PP2A): did not bind to PP2A
binding to PP5-FLAG (co-pulldown) (PP5-FLAG): binds
SMILES: Cc1noc(C)c1S(=O)(=O)Nc1cccc(C(=O)N2CCN(C(=O)CCC[C@@H]3SC[C@@H]4NC(=O)N[C@@H]43)CC2)c1 [biotin-P5, N-[3-(4-(4-[(3aS,4S,6aR)-2-Oxo-hexahydro-1H-thieno[3,4-d]imidazol-4-yl]butanoyl)piperazine-1-carbonyl)phenyl]-3,5-dimethyl-1,2-oxazole-4-sulfonamide]

binding to PP2A (co-pulldown) (PP2A): did not bind to PP2A
binding to PP5-FLAG relative to biotin-P5 (PP5-FLAG; 10μM): bound more
binding to PP5-FLAG (co-pulldown) (PP5-FLAG): binds
binding of PP5 mutant to biotinylated compound compared to WT PP5 [5]: reduced binding
binding of PP5 mutants to biotinylated compound ([6]; H304Q, M309C and W386F mutants): unable to bind
binding of PP5 mutants to biotinylated compound compared to WT PP5 ([6]; R275A and Y451F mutants): increased binding
SMILES: Cc1ccc(N(CCCNC(=O)CCC[C@@H]2SC[C@@H]3NC(=O)N[C@@H]32)S(=O)(=O)c2c(C)noc2C)cc1C [biotin-P13, 4-[(3aS,4S,6aR)-2-Oxo-hexahydro-1H-thieno[3,4-d]imidazol-4-yl]-N-(3-[N-(3,4-dimethylphenyl)3,5-dimethyl-1,2-oxazole-4-sulfonamido]propyl}butanamide]

SMILES: CN1CCN(C(=O)C2C(C(=O)O)[C@H]3CC[C@@H]2O3)CC1 (some centres unmarked) [LB-100]
inhibition of PP5 (PP5): inhibit PP5 and PP1
inhibition of PP1 (PP1): inhibit PP5 and PP1

SMILES: Cc1noc(C)c1S(=O)(=O)Nc1ccc(Cc2ccccc2)cc1 [Compound P053, (3,5-Dimethyl-4-isoxazolylsulfonyl)(p-benzylphenyl)amine]
cell death (PI stained cells) (VHL-null ccRCC cells): selectively caused cell death
cleavage of caspase 3 and PARP (786-O cells [3]; 10μM, 24hrs): increased cleavage of the executioner caspase 3
cleavage of caspase 8 and caspase 9 (extrinsic versus intrinsic apoptosis) (786-O cells [3]; 10μM, 24hrs): cleavage of caspase 8 but not caspase 9
induction of apoptosis (cleaved PARP, cleaved caspase 8) (786-O cells [3]; 10μM, 24hrs): ability to induce apoptosis

mode of PP5 inhibition (enzyme kinetics, Lineweaver-Burk plot) (recombinant PP5-His6): competitive inhibitors
SMILES: Cc1ccc(NS(=O)(=O)c2c(C)noc2C)cc1C [Compound P13, (3,5-Dimethyl-4-isoxazolylsulfonyl)(3,4-xylyl)amine]
proliferation of 786-O cells (MTT) (786-O cells [4]): significantly inhibited the proliferation
cleavage of apoptotic markers (immunoblot) (786-O cells [3]; 10μM, 24hrs): cleavage of the apoptotic markers caspase 3 and 8 and PARP

SMILES: Cc1noc(C)c1S(=O)(=O)N(CCCCl)c1ccc(Oc2ccccc2)cc1 [Compound P059, (3-Chloropropyl)(3,5-dimethyl-4-isoxazolylsulfonyl)(p-phenoxyphenyl)amine]
induction of apoptosis (cleaved PARP, cleaved caspase 8) (786-O cells [3]; 10μM, 24hrs): ability to induce apoptosis
